Measurements published in ChEMBL document CHEMBL1126356, “Structure-activity relationships of the pyridazinone series of 5-lipoxygenase inhibitors” (Bioorg Med Chem Lett, 1992).
Calls of active or inactive are those of the source. No cut-off for these calls is given here.

The compounds below were run against T1, Polyunsaturated fatty acid 5-lipoxygenase (Homo sapiens) (UniProt P09917) (assay: Inhibitory Activity against 5-Lipoxygenase at 30 uM was determined; Weakly active).
T1 sequence (whole entry): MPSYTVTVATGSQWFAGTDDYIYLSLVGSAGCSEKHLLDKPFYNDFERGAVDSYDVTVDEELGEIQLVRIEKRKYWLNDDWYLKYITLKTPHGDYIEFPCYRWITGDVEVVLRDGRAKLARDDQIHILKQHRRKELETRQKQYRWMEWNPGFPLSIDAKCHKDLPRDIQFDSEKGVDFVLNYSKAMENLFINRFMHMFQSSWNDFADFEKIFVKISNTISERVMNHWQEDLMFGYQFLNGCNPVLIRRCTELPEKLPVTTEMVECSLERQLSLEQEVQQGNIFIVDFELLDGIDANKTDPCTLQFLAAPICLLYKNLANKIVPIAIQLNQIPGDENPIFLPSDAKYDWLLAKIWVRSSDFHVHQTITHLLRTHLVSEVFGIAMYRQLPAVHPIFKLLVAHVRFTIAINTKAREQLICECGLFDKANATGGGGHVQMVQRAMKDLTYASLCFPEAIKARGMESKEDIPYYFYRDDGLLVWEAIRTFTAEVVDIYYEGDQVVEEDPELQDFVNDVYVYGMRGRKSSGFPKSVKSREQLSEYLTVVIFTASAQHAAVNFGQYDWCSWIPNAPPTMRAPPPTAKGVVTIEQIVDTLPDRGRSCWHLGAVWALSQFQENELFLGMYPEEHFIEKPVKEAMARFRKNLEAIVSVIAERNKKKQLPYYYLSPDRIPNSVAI

Row | inhibition [%] | SMILES
1 | 24 | O=C1CCC(=O)N(c2ccccc2)N1

Each compound was assayed against T2, Polyunsaturated fatty acid 5-lipoxygenase (Homo sapiens, UniProt P09917) (assay: Inhibitory Activity against 5-Lipoxygenase was determined; NA=No significant inhibitory activity up to 300 uM).
T2 sequence (P09917 whole entry): T1 sequence (whole entry)

Row | IC50 | SMILES
2 | Not Active | O=C1CCCN(c2cccc(C(=O)O)c2)N1

The compounds below were run against T2, Polyunsaturated fatty acid 5-lipoxygenase (assay: Inhibitory Activity against 5-Lipoxygenase was determined; IA=Inactive).

Row | IC50 | SMILES
3 | Not Active | CCOC(=O)CCCCN(N)c1ccccc1
4 | Not Active | CCOC(=O)CCCCCN(N)c1ccccc1

Each compound was assayed against T1, Polyunsaturated fatty acid 5-lipoxygenase (Homo sapiens) (assay: In vitro inhibition of 5-Lipoxygenase; Inactive.).

Row | Activity | SMILES
5 | inactive | c1ccc(N2CCCCN2)cc1
6 | inactive | O=C1CCCN(C(=O)c2ccccc2)N1
7 | inactive | CC1=NN(c2ccccc2)C(=O)CC1
8 | inactive | O=C1CCC(c2ccccc2)=NN1
9 | inactive | O=C1CCC(c2ccccc2)NN1 (stereo unspecified)
10 | inactive | O=C1CCCC(c2ccccc2)N1 (stereo unspecified)
11 | inactive | O=C1CCCN(C2CCCCC2)N1
12 | inactive | O=C1CCCN(c2ccccc2)N1c1ccccc1
13 | inactive | O=C1CCCN(Cc2ccccc2)N1
14 | inactive | CCCCCN1CCCC(=O)N1
15 | inactive | CCC(=O)N1C(=O)CCCN1c1ccccc1
16 | inactive | CN1C(=O)CCCN1c1ccccc1
17 | inactive | O=C1CCCN(c2ccccc2)N1C(=O)c1ccccc1
18 | inactive | O=C1CCCN(c2ccccc2)C1
19 | inactive | C1=NN(c2ccccc2)CCC1
20 | inactive | O=C1CCCNN1
21 | inactive | O=C1CCCC(c2ccccc2)=N1
22 | inactive | CC1CCC(=O)N(c2ccccc2)N1 (stereo unspecified)

Each compound was assayed on Rattus norvegicus (assay: Compound was tested for in vivo potency in the rat anaphylaxis assay).
Assay type: functional

Row | SMILES | ED50 [mg/kg]
23 | N#Cc1cccc(N2CCCC(=O)N2)c1 | 23

What follows are compounds tested against T2, Polyunsaturated fatty acid 5-lipoxygenase (assay: Inhibitory Activity against 5-Lipoxygenase was determined; IA=Inactive at concentrations less than 32 uM).

Row | IC50 | SMILES
24 | Not Active | O=C1CCCCN(c2ccccc2)N1

Each compound was assayed against T2, Polyunsaturated fatty acid 5-lipoxygenase (assay: Inhibitory activity against 5-lipoxygenase.).

Row | SMILES | IC50 [µM]
25 | CC(C)(C)C(=O)c1cccc(N2CCCC(=O)N2)c1 | 15
26 | CC(=O)NNc1ccccc1 | 65
27 | O=C1CCN(c2cccc(Cl)c2)N1 | 0.73
28 | Cc1cccc(N2CCC(=O)N2)c1 | 1.3
29 | O=C1CCCN(c2cccc(C(F)(F)F)c2)N1 | 5.2
30 | CCCC(=O)NNc1ccccc1 | 52
31 | CCCCCCCCN1CCCC(=O)N1 | 23
32 | Cc1ccccc1N1CCC(=O)N1 | 8.2
33 | CCCCCCCCCCCCN1CCCC(=O)N1 | 6
34 | O=C1CCCN(c2ccccc2Cl)N1 | 99
35 | O=C1CCN(c2ccccc2Cl)N1 | 3.7

Now from value to compound:

Row | IC50 [µM] | SMILES
36 | 3.5 | Cc1ccc(N2CCC(=O)N2)cc1
37 | 5.5 | O=C1CCCN(c2cccc(F)c2)N1
38 | 1.8 | O=C1CCCN(c2cccc(Br)c2)N1
39 | 57 | Cc1ccccc1N1CCCC(=O)N1
40 | 79 | O=C1CCCN(c2ccc(Cl)cc2)N1
41 | 204 | COc1ccccc1N1CCCC(=O)N1
42 | 3.8 | O=C1CCCN(c2ccccc2)N1
43 | 9.3 | N#Cc1cccc(N2CCCC(=O)N2)c1
44 | 3.4 | Cc1cccc(N2CCCC(=O)N2)c1
45 | 19 | CC(=O)c1cccc(N2CCCC(=O)N2)c1
46 | 2.5 | O=C1CCCN(c2cccc(Cl)c2)N1
47 | 277 | Cc1ccc(N2CCCC(=O)N2)cc1
48 | 5.6 | CCOC(=O)c1cccc(N2CCCC(=O)N2)c1
49 | 53 | O=C1CCCN(c2cccc(CO)c2)N1
50 | 6.7 | COc1cccc(N2CCCC(=O)N2)c1
51 | 156 | COc1ccc(N2CCCC(=O)N2)cc1
52 | 125 | CCc1ccc(N2CCCC(=O)N2)cc1
53 | 3 | CCc1cccc(N2CCCC(=O)N2)c1
54 | 1.1 | O=C1CCN(c2ccc(Cl)cc2)N1
55 | 39 | CCc1ccccc1N1CCCC(=O)N1

What follows are compounds tested against T1, Polyunsaturated fatty acid 5-lipoxygenase (Homo sapiens) (assay: Inhibitory Activity against 5-Lipoxygenase at concentration 32 uM was determined).

Row | inhibition [%] | SMILES
56 | 8 | O=C1CCCCCN(c2ccccc2)N1
